Test results: publication PMC9260081, “Design, Synthesis, and Evaluation of Anticonvulsant Activities of New Triazolopyrimidine Derivatives” (Frontiers in Chemistry, 2022)
Several values for one entry are separate records, joined by “and”; a condition that tells them apart may be missing. Identical values can stand only once. Like-named read-outs stand apart in the source and are kept apart here. Marks after values point to notes of the source that are not given here.

What was measured:
PTZ-induced seizures = assay: Subcutaneous pentylenetetrazole (PTZ) test; assay type: in vivo, mice; details: for minimal effective dose / ED50: Mus musculus; for minimal effective dose / ED50 / PI scPTZ, protective index (TD50/ED50): ip; for minimal effective dose: dosages 30, 100, 300 mg/kg, read-out: PTZ screening, minimum dose whereby bioactivity was demonstrated in half or more of the mice; for ED50: read-out: ED50 scPTZ; for PI scPTZ, protective index (TD50/ED50): male, Kunming, mouse, in vivo; for PTZ model, number of animals protected/number of animals tested: 30 mg/kg, 0.5 h
Protocol: (§1) Male Kunming mice with weights from 18 to 22 g were used in all the pharmacological experiments. The mice were housed in the standard cages with 10 each, where a controlled temperature (25°C ± 2°C) with a 12 h light/dark cycle was maintained. All animals had free access to food and water. All experiments and procedures involving animals were carried out according to the Guide for the Care and Use of Laboratory Animals (National Academies Press, Washington, D.C., United States). Approval from the local medical ethical committee was obtained before the experiment.
In the PTZ test, mice were subcutaneously administered with PTZ at the dose of 85 mg/kg. At this dose, mice can be elicited a threshold seizure characterized by an episode of clonic spasms and tonic spasms. After being treated with test compounds at doses of 300, 100, and 30 mg/kg, the mice were considered protected if a single episode of clonic spasms of more than 5 s duration was not obtained. The quantitative anticonvulsant activity (ED50) in the PTZ model was determined and calculated with the same method described in the MES test.

MES-induced seizures = assay: Maximal electroshock seizure (MES) test; assay type: in vivo, mice; details: for minimal effective dose / ED50: Mus musculus, ip; for minimal effective dose: dosages 30, 100, 300 mg/kg, read-out: MES screening, minimum dose whereby bioactivity was demonstrated in half or more of the mice; for ED50: read-out: ED50 MES; for PI MES, protective index (TD50/ED50): TD50 rotarod / ED50 MES, mice i.p.; for MES model, number of animals protected/number of animals tested: 30 mg/kg, 0.5 h
Protocol: as §1
In the MES test, mice were subjected to ear stimulation using a 0.2 s 60-Hz 50-mA alternating current to elicit seizures. Tonic hind limb extension was considered as the seizure occurring, and the vanishing of tonic hind limb extension indicates the protection against the MES-induced seizures. Mice were injected intraperitoneally with test compounds at doses of 300, 100, and 30 mg/kg to evaluate their general anticonvulsant activity. Half and 4 h intervals were chosen to test the anti-MES activity. […] A series of doses of the tested compounds were injected into the mice with 10 in one group.

[1] = Neurotoxicity screening (rotarod test); assay type: in vivo; details: male, Kunming, mouse, in vivo, ip; rotarod, mice; 95% confidence interval in brackets
Protocol: as §1
(§2) The rotarod test was used to evaluate the neurotoxicity of the synthesized compounds. Before the formal experiments, mice were trained to climb on a rotating rod of diameter 3.2 cm with the rotation speed of 10 rpm. Test compounds in the three doses were intraperitoneally injected into the trained mice. […] The rough neurotoxic dose was obtained in which mice cannot maintain equilibrium on the rod for at least 1 min. The quantitative neurotoxic dose (TD50) of the test compounds was measured and calculated with the same method described in the MES test.

[2] = test system: ability to maintain equilibrium on rotating rod; assay: Neurotoxicity screening (rotarod test); assay type: in vivo; details: i.p., dosages 30, 100, 300 mg/kg
Protocol: as §1, §2

GABAA BZD receptor = assay: Radioligand receptor binding assay ([3H]-flumazenil competition); details: rat brain membranes; for IC50: competition with 0.5 nM [3H]-flumazenil, 95% CI in brackets; for Ki: competition with [3H]-flumazenil, Cheng–Prusoff
BIC-induced seizures = assay: Bicuculline (BIC)-induced seizure test; assay type: in vivo; details: BIC 5.4 mg/kg, compound 30 mg/kg, test time 0.5 h, percentage of animals, 10 mice
Protocol: as §1
(§3) In the BIC-induced seizure test, groups of 10 mice were administered with 30 mg/kg of test samples or vehicle. Then, 30 min later, the minimum dose of BIC (5.4 mg/kg) that could completely induce seizures for mice was subcutaneously injected into the test mice. The mice were placed into separate cages each, and the number of clonic seizures, tonic seizures, and mortality was recorded for 30 min.

3-MP-induced seizures = assay: 3-Mercaptopropionic acid (3-MP)-induced seizure test; assay type: in vivo; details: 3-MP 60 mg/kg; compound 30 mg/kg, test time 0.5 h; percentage of animals, 10 mice
Protocol: as §1
as §3, with “3-MP–induced” for “the BIC-induced”, “After” for “Then,”, “min,” for “min later,”, “3-MP (60” for “BIC (5.4”, “intraperitoneally” for “subcutaneously”

[3] = mice, 95% confidence interval in brackets
[4] = pretreated with flumazenil (FMZ) 10 mg/kg 15 min before seizure induction
[5] = pretreated with thiosemicarbazide (TSC) 25 mg/kg/day for 3 days

SMILES	minimal effective dose (PTZ-induced seizures; mice, 0.5 h after injection)	minimal effective dose (PTZ-induced seizures; mice, 4 h after injection)	ED50 (PTZ-induced seizures; [3])	PI scPTZ, protective index (TD50/ED50) (PTZ-induced seizures)	minimal effective dose (MES-induced seizures; mice, 0.5 h after injection)	minimal effective dose (MES-induced seizures; mice, 4 h after injection)	ED50 (MES-induced seizures; [3])	PI MES, protective index (TD50/ED50) (MES-induced seizures)	TD50 at 30 min [1]	NT screening (rotarod), minimum neurotoxic dose in half or more of the mice ([2]; 0.5 h after injection)	NT screening (rotarod), minimum neurotoxic dose in half or more of the mice ([2]; 4 h after injection)	further results
c1ccc(COc2ccc(-c3ccnc4ncnn34)cc2)cc1 [Compound 6e, 7-(4-(Benzyloxy)phenyl)-[1,2,4]triazolo[1,5-a]pyrimidine]	30 mg/kg	> 300 mg/kg	28.4 mg/kg	12.9	30 mg/kg	300 mg/kg	38 mg/kg	9.6	366 mg/kg	300 mg/kg	— (A dash indicates the absence of anticonvulsant activity and neurotoxicity at the maximum dose administered (300 mg/kg))	
CN1C(=O)CN=C(c2ccccc2)c2cc(Cl)ccc21 [Diazepam, reference compound]												ED50 (PTZ-induced seizures): 0.5 mg/kg; IC50 (GABAA BZD receptor): 1.3 nM; Ki (GABAA BZD receptor): 0.61 nM; ED50 (MES-induced seizures): 10.1 mg/kg
NC(=O)N1c2ccccc2C=Cc2ccccc21 [Carbamazepine, reference compound]			> 100 mg/kg	<0.44			9.8 mg/kg	4.5	44 mg/kg			Clonic seizure (%) (BIC-induced seizures): 100%; Lethality (%) (BIC-induced seizures): 20** %; Tonic seizure (%) (BIC-induced seizures): 0*** %; Lethality (%) (BIC-induced seizures; listed as carbamazepine): significantly inhibited; Tonic seizure (%) (BIC-induced seizures; listed as carbamazepine): significantly inhibited; Clonic seizure (%) (3-MP-induced seizures): 100%; Lethality (%) (3-MP-induced seizures): 0** %; Tonic seizure (%) (3-MP-induced seizures): 0*** %
CCCCCOc1ccc(-c2ccnc3ncnn23)cc1 [Compound 6c, 7-(4-(Pentyloxy)phenyl)-[1,2,4]triazolo[1,5-a]pyrimidine]	30 mg/kg	> 300 mg/kg	23.7 mg/kg	16.0	30 mg/kg	300 mg/kg	25.3 mg/kg	15.0	380 mg/kg	— (A dash indicates the absence of anticonvulsant activity and neurotoxicity at the maximum dose administered (300 mg/kg))	— (A dash indicates the absence of anticonvulsant activity and neurotoxicity at the maximum dose administered (300 mg/kg))	
Fc1ccc(-c2ccnc3ncnn23)cc1 [Compound 3b, 7-(4-Fluorophenyl)-[1,2,4]triazolo[1,5-a]pyrimidine]	300 mg/kg	> 300 mg/kg			300 mg/kg	> 300 mg/kg				— (A dash indicates the absence of anticonvulsant activity and neurotoxicity at the maximum dose administered (300 mg/kg))	— (A dash indicates the absence of anticonvulsant activity and neurotoxicity at the maximum dose administered (300 mg/kg))	
Clc1ccc(-c2ccnc3ccnn23)c(Cl)c1 [Compound 4e, 7-(2,4-Dichlorophenyl)pyrazolo[1,5-a]pyrimidine]	300 mg/kg	> 300 mg/kg			> 300 mg/kg	> 300 mg/kg				— (A dash indicates the absence of anticonvulsant activity and neurotoxicity at the maximum dose administered (300 mg/kg))	— (A dash indicates the absence of anticonvulsant activity and neurotoxicity at the maximum dose administered (300 mg/kg))	
Clc1ccccc1-c1ccnc2ccnn12 [Compound 4c, 7-(2-Chlorophenyl)pyrazolo[1,5-a]pyrimidine]	> 300 mg/kg	> 300 mg/kg			> 300 mg/kg	> 300 mg/kg				— (A dash indicates the absence of anticonvulsant activity and neurotoxicity at the maximum dose administered (300 mg/kg))	— (A dash indicates the absence of anticonvulsant activity and neurotoxicity at the maximum dose administered (300 mg/kg))	
COc1ccc(-c2ccnc3ncnn23)cc1 [Compound 3i, 7-(4-Methoxyphenyl)-[1,2,4]triazolo[1,5-a]pyrimidine]	100 mg/kg	> 300 mg/kg			300 mg/kg	> 300 mg/kg				— (A dash indicates the absence of anticonvulsant activity and neurotoxicity at the maximum dose administered (300 mg/kg))	— (A dash indicates the absence of anticonvulsant activity and neurotoxicity at the maximum dose administered (300 mg/kg))	
Clc1ccc(-c2ccnc3ncnn23)c(Cl)c1 [Compound 3e, 7-(2,4-Dichlorophenyl)-[1,2,4]triazolo[1,5-a]pyrimidine]	100 mg/kg	> 300 mg/kg			100 mg/kg	> 300 mg/kg				— (A dash indicates the absence of anticonvulsant activity and neurotoxicity at the maximum dose administered (300 mg/kg))	— (A dash indicates the absence of anticonvulsant activity and neurotoxicity at the maximum dose administered (300 mg/kg))	
CCCCCCOc1ccc(-c2ccnc3ncnn23)cc1 [Compound 6d, 7-(4-(Hexyloxy)phenyl)-[1,2,4]triazolo[1,5-a]pyrimidine]	30 mg/kg	> 300 mg/kg	14.1 mg/kg	22.5	30 mg/kg	100 mg/kg	15.8 mg/kg	20.1	317 mg/kg	300 mg/kg	— (A dash indicates the absence of anticonvulsant activity and neurotoxicity at the maximum dose administered (300 mg/kg))	PTZ model, number of animals protected/number of animals tested (PTZ-induced seizures; [4]): completely reversed and 0/5***; PTZ model, number of animals protected/number of animals tested (PTZ-induced seizures; [5]): completely reversed and 0/5***; PTZ model, number of animals protected/number of animals tested (PTZ-induced seizures; pretreatment with saline): full protection and 5/5; IC50 (GABAA BZD receptor): 8.4 nM; Ki (GABAA BZD receptor): 3.9 nM; Clonic seizure (%) (BIC-induced seizures): 10%; Lethality (%) (BIC-induced seizures): 0%; Tonic seizure (%) (BIC-induced seizures): 0%; MES model, number of animals protected/number of animals tested (MES-induced seizures; [4]): completely reversed and 0/5***; MES model, number of animals protected/number of animals tested (MES-induced seizures; [5]): completely reversed and 0/5***; MES model, number of animals protected/number of animals tested (MES-induced seizures; pretreatment with saline): full protection and completely protected and 5/5 ^c and 5/5
